# Reference: patent publication US20210170026A1, “ANTICANCER AGENT, RADIOSENSITIZER, AND FOOD COMPOSITION” (KRACIE PHARMA, LTD., priority 2016, published 2021)
# Key:
# [1] = cited from earlier work
# [2] = tested on: human pancreatic cancer cells, MiaPaCa-2 cells; test: Test Example 1: antitumor effects of arctigenin treatment and radiation therapy in mice transplanted with MiaPaCa-2 cells; format: in vivo, BALB/cAJc1-nu/nu mice
# Experimental: The antitumor effects of arctigenin treatment and radiation therapy were evaluated. To BALB/cAJc1-nu/nu mice (CLEA Japan, Inc.), 1×10^6 human pancreatic cancer cells, MiaPaCa-2 cells were subcutaneously transplanted. On day 14 after the transplantation, the mice to which the cells were transplanted were divided into four groups of (a) untreated group, (b) arctigenin treatment group, (c) radiation therapy group and (d) arctigenin treatment-radiation therapy-combination group. The arctigenin treatment group and the combination group were treated with arctigenin for two weeks. The arctigenin treatment was conducted by giving feed containing 0.5% (w/w) of the burdock fruit extract of Example 1 to the mice. When the dose of arctigenin was calculated assuming that the daily intake of the feed of the mice was 3 to 5 g, the dose was 1.5 to 2.5 mg/individual/day. After two weeks of the arctigenin treatment, radiation was applied to the tumors of the radiation therapy group and the combination group using an x-ray irradiator (Faxitron X-ray (model: CP160)) under the setting conditions of 160 kV and 6.3 mA at a dose of 20 Gy/fraction through a copper plate filter. Then, the arctigenin administration group and the combination group were treated with arctigenin for two weeks. After the arctigenin treatment, the tumor sizes and the tumor weights of the groups were measured. In addition, the tumors were collected and pathologically analyzed.
# [3] = tested on: human pancreatic cancer cells, MiaPaCa-2 cells; test: Test Example 2: order of arctigenin treatment and radiation therapy in mice transplanted with MiaPaCa-2 cells; format: in vivo, BALB/cAJc1-nu/nu mice
# Experimental: In order to evaluate whether the order of the burdock fruit extract treatment and the radiation therapy would affect the antitumor effects, arctigenin treatment was conducted for two weeks either before or after conducting radiation therapy. To BALB/cAJc1-nu/nu mice (CLEA Japan, Inc.), 1×10^6 human pancreatic cancer cells, MiaPaCa-2 cells were subcutaneously transplanted. On day 14 after the transplantation, the mice to which the cells were transplanted were divided into (a) untreated group, (b) arctigenin treatment group, (c) radiation therapy group and (d) arctigenin treatment-radiation therapy-combination group. The (b) arctigenin treatment group was further divided into a group in which two-week arctigenin treatment was started 14 days after the transplantation and a group in which two-week arctigenin treatment was started four weeks after the transplantation. […] When the dose of arctigenin was calculated assuming that the daily intake of the feed of the mice was 3 to 5 g, the dose was 1.5 to 2.5 mg/individual/day. […] After the two-week arctigenin treatment after the radiation therapy, the tumor sizes and the tumor weights of the groups were measured. In addition, the tumors were collected and pathologically analyzed.
# [4] = combination of arctigenin treatment and radiation therapy (20 Gy/fraction), two weeks after the radiation therapy, vs untreated group
compound,measurement,setting,value
COc1cc(C[C@H]2C(=O)OC[C@@H]2Cc2ccc(OC)c(OC)c2)ccc1O [arctigenin],solubility in water,[1],insoluble
same,intratumoral hypoxic region (photon counts/tumor volume) using IVIS,"[2]; after the arctigenin treatment (before radiation therapy), vs untreated group, FIG. 3, FIG. 4",significantly smaller
same,average tumor size,"[2]; after two weeks of first arctigenin treatment (before radiation therapy), vs untreated group, feed containing 0.5% (w/w) burdock fruit extract of Example 1, arctigenin 1.5 to 2.5 mg/individual/day, FIG. 2",significantly smaller
same,tumor size,"[2]; arctigenin treatment alone, after end of treatment (two weeks after the radiation therapy), vs untreated group",a tendency towards a smaller tumor size
same,tumor sizes,[2]; [4],significantly smaller
same,tumor weights,[2]; [4],significantly smaller
same,tumors (size),"[2]; combination of arctigenin treatment and radiation therapy, vs radiation therapy alone",significantly small
same,hypoxic state in the tumor,"[3]; arctigenin treatment before the radiation therapy, IVIS, FIG. 12",improved
same,average tumor size,"[3]; two-week arctigenin treatment before radiation therapy (AG-Con, RT(+)) vs arctigenin treatment after radiation therapy (Con-AG, RT(+)), FIG. 11",shrank significantly
